From publication PMC11721293 (JCI Insight, 2025)
Where “and” joins values, the source holds several entries; their conditions need not be identical. Equal entries are not always repeated. Where two headings read alike, the source gives them in different places.

Tests used:
[1] = test system: VSV-SARS-CoV-2-S pseudovirus; assay: microbe, parasite or virus in culture; type: cell-based; settings: for EC50: Pseudovirus
[2] = test system: SARS-CoV-2 (Wuhan strain); type: cell-based; settings: replicates
SARS-CoV-2 = type: cell-based; settings: for percentage genome copy number relative to DMSO: 48 h, replicates
SARS-CoV-2-nLUC = type: cell-based; settings: Nirmatrelvir 0 uM, sheet S3B, replicates
SARS-CoV-2 Wuhan = type: cell-based; settings: VeroE6, 10 μM LNF, 24 h, DMSO = 100%
[3] = test system: SARS-CoV-2 BA.1 (Omicron); type: cell-based; settings: VeroE6, 10 μM LNF, 24 h, DMSO = 100%
[4] = test system: SARS-CoV-2 BA.4.6 (Omicron); type: cell-based; settings: VeroE6, 10 μM LNF, 24 h, DMSO = 100%
[5] = test system: SARS-CoV-2 spike protein–mediated cell-cell fusion (B.1.1.7); type: cell-based; settings: 48 h
SARS-CoV-2 viral entry = type: cell-based; settings: for viral entry signal relative to DMSO (sheet 4D): individual replicates, DMSO about 1
SARS-CoV-2 RDPs = assay: microbe, parasite or virus in culture; type: cell-based; settings: for EC50: Huh7.5 ACE-TMPRSS2, Gluc RDPs, 24 h
viral RdRp = viral RdRp (Severe acute respiratory syndrome coronavirus 2, UniProt P0DTD1); assay: In vitro RdRp activity assay (RNA extension); type: biochemical, SARS-CoV-2; settings: LNF 0.1, 1 and 10 μM; TEMPOL 100 μM
SARS-CoV-2-WA [6] = type: in vivo, mouse; settings: 50 MPK oral gavage twice daily; day 2
SARS-CoV-2-WA [7] = type: in vivo, mouse; settings: 50 MPK oral gavage twice daily
in vitro [8] = settings: human
in vitro [9] = settings: human; remark: listed apart in the source
in vitro [10] = settings: human; remark: listed apart in the source
lysosomal compartment = assay: LysoTracker staining of VeroTA6 cells
Description: (A) VeroTA6 cells were seeded
post treatment, the cells were stained with lysotracker (Thermofisher, L7528) and visualized under
the microscope (left). The fluorescence intensity was captured and quantified for each treatment
B), the significance was calculated using one-way ANOVA with Dunnett’s test with multiple
comparison to the DMSO control, and the P values are depicted as ns for P>0.05, ** for P <0.01,

NC(=O)N1CCC(CC(=O)N2CCC([C@H]3c4ncc(Br)cc4CCc4cc(Cl)cc(Br)c43)CC2)CC1 [LNF, lonafarnib]
Max % [1]: 100.0%
EC50 ([1]; Calu-3, 24 h, 24 h, read-out: EC50): 3.17 µM
EC50 ([1]; Huh-7, 24 h, 24 h, read-out: EC50): 4.16 µM
EC50 ([1]; Huh-7, read-out: EC50): 4.2 µM
EC50 ([1]; read-out: EC50 values, range over cell lines): 1.5 to 4.16 µM
EC50 ([1]; read-out: EC50): 3.3 µM
percentage of N-positive cells relative to DMSO ([2]; Fig 1B, 5 mM (printed)): 45.291% and 39.2779% and 27.7255% and 32.1523% and 27.1799% and 44.2583% and 28.0879%
percentage of N-positive cells relative to DMSO ([2]; Fig 1B, 10 mM (printed)): 6.293% and 7.566% and 7.349% and 6.272% and 7.2903% and 7.5535% and 6.442%
percentage of N-positive cells relative to DMSO ([2]; Fig 1C, 5 mM (printed)): 10.1344% and 5.318% and 6.858% and 5.707% and 14.6837% and 5.046% and 43.0964%
percentage of N-positive cells relative to DMSO ([2]; Fig 1C, 10 mM (printed)): 4.886% and 4.575% and 6.603% and 7.209% and 6.0224% and 5.548% and 4.54%
reduction of viral genome copy number in infected cells (SARS-CoV-2; 10 μM, VeroE6 and Calu3): more than 90%
percentage genome copy number relative to DMSO (SARS-CoV-2; Fig 1D, 5 mM (printed)): 15.7327% and 8.267% and 4.447%
percentage genome copy number relative to DMSO (SARS-CoV-2; Fig 1D, 10 mM (printed)): 0.3388% and 0.169% and 0.1887%
percentage genome copy number relative to DMSO (SARS-CoV-2; Fig 1E, 5 mM (printed)): 1.7284% and 12.0506% and 10.6523% and 4.939%
percentage genome copy number relative to DMSO (SARS-CoV-2; Fig 1E, 10 mM (printed)): 0.1445% and 0.1282% and 0.2571% and 0.1291%
Response (SARS-CoV-2-nLUC; Lonafarnib 0.15625 uM): 2.22 and 4.213 and 2.074
Response (SARS-CoV-2-nLUC; Lonafarnib 0.3125 uM): 1.244 and 2.405 and 2.249
Response (SARS-CoV-2-nLUC; Lonafarnib 0.625 uM): -2.027 and 1.3173 and 0.3833
Response (SARS-CoV-2-nLUC; Lonafarnib 1.25 uM): 5.206 and 5.033 and 2.62
Response (SARS-CoV-2-nLUC; Lonafarnib 2.5 uM): 26.488 and 26.5645 and 16.3468
Response (SARS-CoV-2-nLUC; Lonafarnib 5 uM): 76.2414 and 75.9942 and 62.6493
% Genome (SARS-CoV-2 Wuhan): 8.96% and 1.08% and 1.45%
% Genome [3]: 3.11% and 3.81% and 4.35%
% Genome [4]: 1.73% and 1.25% and 0.58%
relative luciferase signals ([5]; Conc-mM 0.3 (printed)): 87.1833 and 82.9457 and 81.1177 and 86.5186
relative luciferase signals ([5]; Conc-mM 1 (printed)): 76.2725 and 76.052 and 86.6016 and 79.6419
relative luciferase signals ([5]; Conc-mM 3 (printed)): 59.768 and 61.4378 and 52.374 and 53.9099
relative luciferase signals ([5]; Conc-mM 10 (printed)): 35.1915 and 32.9108 and 27.2582 and 33.268
inhibition of viral entry (SARS-CoV-2 viral entry): inhibited viral entry
viral entry signal relative to DMSO (sheet 4D) (SARS-CoV-2 viral entry; TA6 cells): 0.282 and 0.3105 and 0.4405 and 0.3405 and 0.2054 and 0.2625 and 0.3109 and 0.2607 and 0.1876
viral entry signal relative to DMSO (sheet 4D) (SARS-CoV-2 viral entry; VeroE6 cells): 0.1605 and 0.1408 and 0.1008 and 0.1281 and 0.213 and 0.1543 and 0.08537 and 0.09496 and 0.1294
EC50 (SARS-CoV-2 RDPs): 10.4 µM
Inhibition (SARS-CoV-2 RDPs; Log[LNF} mM 1): 53.2589 and 40.1773 and 43.3748 and 43.6359
EC50 (SARS-CoV-2 RDPs; Severe acute respiratory syndrome coronavirus 2, Huh7.5, 24 h): 10.5 µM
polymerase activity, primer extension (viral RdRp): not affected
lung viral titer (SARS-CoV-2-WA [6]): significantly lower viral titers in the lung
lung histopathology score vs vehicle (SARS-CoV-2-WA [7]): significantly lower histopathology score
CC50 (in vitro [8]): > 30 µM
CC50 (in vitro [9]): > 30 µM
CC50 (in vitro [10]): > 30 µM
LysoTracker fluorescence intensity (lysosomal compartment; VeroTA6, 10 μM, 30 min): significantly higher fluorescence intensity
Lysotracker (lysosomal compartment; sheet S5A, individual measurements): 1000.41 and 1078.15 and 1357.74 and 1025.55 and 1236.53 and 1375.69 and 1111.13 and 939.183 and 1788.26 and 2301.51 and 898.567 and 730.339 and 642.99 and 1893.93 and 696.429 and 1937.99 and 1199.36 and 1178.39 and 1146.54 and 1719.14 and 1470.88 and 572.253 and 1006.33
